Two molecules from article PMC6099883 (Proceedings of the National Academy of Sciences of the …, 2018) can be followed below.

This experiment has as its target T1, OsGID1 with SLR1 (Oryza sativa, UniProt Q6L545).
T1 sequence (Q6L545 1-354): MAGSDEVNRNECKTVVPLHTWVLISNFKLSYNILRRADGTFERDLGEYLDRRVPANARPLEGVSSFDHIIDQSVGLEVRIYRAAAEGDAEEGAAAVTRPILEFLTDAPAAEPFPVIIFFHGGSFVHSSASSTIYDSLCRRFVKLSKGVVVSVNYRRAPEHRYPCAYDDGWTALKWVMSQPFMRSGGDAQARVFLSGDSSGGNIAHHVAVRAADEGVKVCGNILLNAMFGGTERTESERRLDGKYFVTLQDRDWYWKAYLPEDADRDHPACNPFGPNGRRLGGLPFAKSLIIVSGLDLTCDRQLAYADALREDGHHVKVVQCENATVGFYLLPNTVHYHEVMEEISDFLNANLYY
T1 sequence (Q7G7J6 1-625 partner): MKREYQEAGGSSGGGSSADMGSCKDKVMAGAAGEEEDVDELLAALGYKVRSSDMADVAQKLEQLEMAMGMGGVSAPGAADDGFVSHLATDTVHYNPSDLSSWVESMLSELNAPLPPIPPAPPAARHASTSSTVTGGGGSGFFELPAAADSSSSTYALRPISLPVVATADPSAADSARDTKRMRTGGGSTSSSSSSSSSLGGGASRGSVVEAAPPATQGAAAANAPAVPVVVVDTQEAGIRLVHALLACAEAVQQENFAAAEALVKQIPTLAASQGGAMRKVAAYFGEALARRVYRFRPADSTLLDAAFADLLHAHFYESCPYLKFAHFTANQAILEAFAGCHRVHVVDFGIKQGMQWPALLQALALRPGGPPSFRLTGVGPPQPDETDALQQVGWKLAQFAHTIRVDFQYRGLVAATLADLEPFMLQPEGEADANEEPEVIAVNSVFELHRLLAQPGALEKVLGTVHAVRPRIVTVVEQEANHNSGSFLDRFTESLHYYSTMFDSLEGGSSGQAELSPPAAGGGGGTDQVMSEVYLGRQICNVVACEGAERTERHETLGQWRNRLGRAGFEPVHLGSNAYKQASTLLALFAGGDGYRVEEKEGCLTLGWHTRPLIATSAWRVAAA
The experiment in a line: SPR. In kind it is binding.

On to `C=C1C[C@]23C[C@@]1(O)CC[C@H]2[C@@]12CC[C@H](O)[C@@](C)(C(=O)O1)[C@H]2[C@@H]3C(=O)O` [GA1], for which the affinity, expressed as Kd, was 0.305 µM. In the case of `C=C1C[C@]23C[C@@]1(O)CC[C@H]2[C@@]12C=C[C@H](O)[C@@](C)(C(=O)O1)[C@H]2[C@@H]3C(=O)O` [GA3] it was 0.296 µM.
